Reference: paper PMC9151729, “Experimental solubility and thermodynamic modeling of empagliflozin in supercritical carbon dioxide” (Scientific Reports, 2022)
In brackets after ≈: the same amount, converted by molar mass. Where two headings read alike, the source gives them in different places. Marks after values point to notes of the source that are not given here.

What was measured:
[1] = Solubility of empagliflozin in supercritical carbon dioxide (isobaric-isothermal method, UV-Vis at 276 nm); type: physicochemical; conditions: for solubility thermodynamic at 60 min: supercritical carbon dioxide (ScCO2), thermodynamic from solid, read-out: S (equilibrium solubility) in ScCO2
Experimental: The detailed discussion of the solubility apparatus and equilibrium cell has been presented in our earlier studies (Fig. 2)[19],[25],[40],[41]. However, a brief description about the apparatus is presented in this section. This method may be classified as an isobaric-isothermal method. Each measurement was carried out with high precision and temperatures and pressures were controlled within ± 0.1 K and ± 0.1 MPa, respectively. For all measurement, 1 g of empagliflozin drug was used. As mentioned in our previous works, the equilibrium was observed within 60 min. After equilibrium, 600 µL saturated ScCO2 sample was collected via 2-status 6-way port valve in a DMSO preloaded vial. After discharging 600 µL saturated ScCO2, the port valve was washed with 1 ml DMSO. Thus, the total saturation solution was 5 ml. Each measurement was repeated thrice and their average values were reported. Mole fraction is obtained as follows:1 y2=ndrug/ndrug+nCO2 where nsolute is the moles number of the drug, and nCO2 is the moles number of CO2 in the sampling loop.
Further, the above quantities are given as:2 nsolute=Cs·Vs/Ms 3 nCO2=V1·ρ/MCO2 where Cs is the drug concentration in saturated sample vial in g/L. The volume of the sampling loop and vial collection are V1(L) = 600 × 10^–6 m^3 and Vs(L) = 5 × 10^–3 m^3, respectively. The Ms and MCO2 are the molecular weight of drug and CO2, respectively. Solubility is also described as4 S=CSVs/V1
The relation between S and y2 is5 S=ρMs/MCO2y2/1-y2
A UV–Visible spectrophotometer (Model UNICO-4802) and DMSO solvent were used for the measurement of empagliflozin solubility. The samples were analyzed at 276 nm.

[2] = Total, sublimation and solvation enthalpies from Chrastil, Reformulated Chrastil and Bartle et al. model correlations of the solubility data; type: physicochemical
Description: It is an empirical model and mathematically stated as:7 lny2P/Pref=A2+B2/T+C2ρ-ρref where A2-C2 are model constants. From parameter B2 , one can estimate sublimation enthalpy using the relation, ΔsubH=-B2R , in which R is universal gas constant.
It is a semi-empirical model and mathematically stated as:9 c2=ρ1κexpA4+B4/T where κ,A4andB4 are model constants.
It is a semi-empirical model and mathematically explained as:15 y2=RTρ1/MCFf^·^κ^′-1expA11+B11/T where κ^′,A10andB10 are model constants.
The density-based models considered in this work have different number of adjustable parameters. These parameters range from three to six numbers. The correlating ability of the models is depicted in Figs. 5, 6, 7, 8, 9, 10, 11. From the results, it is clear that all the models are able to correlate the data reasonably well and maximum AARD% is observed to be 10.4%. It is believed that, more parameter models are able to correlate the data more accurately. Sodefian et al., model is able to correlate the data with AARD = 5.84% and Akaike’s information criterion (AIC = − 637.59) (more relevant information is presented in the following section). Among density models, Bian et al., model (five parameters model) is able to correlate the data well and corresponding AARD% is 5.1%. […] Further, Chrastil and Reformulated Chrastil models are able to provide the total enthalpy. Whereas, Bartle et al., model parameters are able to provide sublimation enthalpy of the empagliflozin drug. From the magnitude difference between the total and sublimation enthalpies, a solvation enthalpy is calculated.

[3] = 308 K, 12 MPa, ScCO2 density 769 kg/m^3
[4] = 308 K, 15 MPa, ScCO2 density 817 kg/m^3
[5] = 308 K, 18 MPa, ScCO2 density 849 kg/m^3
[6] = 308 K, 21 MPa, ScCO2 density 875 kg/m^3
[7] = 308 K, 24 MPa, ScCO2 density 896 kg/m^3
[8] = 308 K, 27 MPa, ScCO2 density 914 kg/m^3
[9] = 318 K, 12 MPa, ScCO2 density 661 kg/m^3
[10] = 318 K, 15 MPa, ScCO2 density 744 kg/m^3
[11] = 318 K, 18 MPa, ScCO2 density 791 kg/m^3
[12] = 318 K, 21 MPa, ScCO2 density 824 kg/m^3
[13] = 318 K, 24 MPa, ScCO2 density 851 kg/m^3
[14] = 318 K, 27 MPa, ScCO2 density 872 kg/m^3
[15] = 328 K, 12 MPa, ScCO2 density 509 kg/m^3
[16] = 328 K, 15 MPa, ScCO2 density 656 kg/m^3
[17] = 328 K, 18 MPa, ScCO2 density 725 kg/m^3
[18] = 328 K, 21 MPa, ScCO2 density 769 kg/m^3
[19] = 328 K, 24 MPa, ScCO2 density 802 kg/m^3
[20] = 328 K, 27 MPa, ScCO2 density 829 kg/m^3
[21] = 338 K, 12 MPa, ScCO2 density 388 kg/m^3
[22] = 338 K, 15 MPa, ScCO2 density 557 kg/m^3
[23] = 338 K, 18 MPa, ScCO2 density 652 kg/m^3
[24] = 338 K, 21 MPa, ScCO2 density 710 kg/m^3
[25] = 338 K, 24 MPa, ScCO2 density 751 kg/m^3
[26] = 338 K, 27 MPa, ScCO2 density 783 kg/m^3

In the case of OC[C@H]1O[C@@H](c2ccc(Cl)c(Cc3ccc(O[C@H]4CCOC4)cc3)c2)[C@H](O)[C@@H](O)[C@@H]1O [empagliflozin], the “y2 solubility in ScCO2 (mole fraction)” value [1, 3] is reported as 0.0814 y2 × 10^4 (mole fraction), the “y2 solubility in ScCO2 (mole fraction)” value [1, 4] is reported as 0.1266 y2 × 10^4 (mole fraction) and the “y2 solubility in ScCO2 (mole fraction)” value [1, 5] is reported as 0.1327 y2 × 10^4 (mole fraction). The “y2 solubility in ScCO2 (mole fraction)” value [1, 6] was 0.1411 y2 × 10^4 (mole fraction), the “y2 solubility in ScCO2 (mole fraction)” value [1, 7] was 0.1501 y2 × 10^4 (mole fraction) and the “y2 solubility in ScCO2 (mole fraction)” value [1, 8] was 0.1806 y2 × 10^4 (mole fraction). For the same compound, the “y2 solubility in ScCO2 (mole fraction)” value [1, 9] was 0.0706 y2 × 10^4 (mole fraction), the “y2 solubility in ScCO2 (mole fraction)” value [1, 10] was 0.1182 y2 × 10^4 (mole fraction) and the “y2 solubility in ScCO2 (mole fraction)” value [1, 11] was 0.1515 y2 × 10^4 (mole fraction). For the same compound, the “y2 solubility in ScCO2 (mole fraction)” value [1, 12] was 0.1601 y2 × 10^4 (mole fraction), the “y2 solubility in ScCO2 (mole fraction)” value [1, 13] was 0.2040 y2 × 10^4 (mole fraction) and the “y2 solubility in ScCO2 (mole fraction)” value [1, 14] was 0.2079 y2 × 10^4 (mole fraction). The “y2 solubility in ScCO2 (mole fraction)” value [1, 15] was 0.0611 y2 × 10^4 (mole fraction), the “y2 solubility in ScCO2 (mole fraction)” value [1, 16] was 0.1044 y2 × 10^4 (mole fraction) and the “y2 solubility in ScCO2 (mole fraction)” value [1, 17] was 0.1620 y2 × 10^4 (mole fraction). The “y2 solubility in ScCO2 (mole fraction)” value [1, 18] was 0.1860 y2 × 10^4 (mole fraction), the “y2 solubility in ScCO2 (mole fraction)” value [1, 19] was 0.2248 y2 × 10^4 (mole fraction) and the “y2 solubility in ScCO2 (mole fraction)” value [1, 20] was 0.2260 y2 × 10^4 (mole fraction). For the same compound, the “y2 solubility in ScCO2 (mole fraction)” value [1, 21] was 0.0514 y2 × 10^4 (mole fraction), the “y2 solubility in ScCO2 (mole fraction)” value [1, 22] was 0.0928 y2 × 10^4 (mole fraction) and the “y2 solubility in ScCO2 (mole fraction)” value [1, 23] was 0.2002 y2 × 10^4 (mole fraction). The “y2 solubility in ScCO2 (mole fraction)” value [1, 24] was 0.2266 y2 × 10^4 (mole fraction), the “y2 solubility in ScCO2 (mole fraction)” value [1, 25] was 0.2637 y2 × 10^4 (mole fraction) and the “y2 solubility in ScCO2 (mole fraction)” value [1, 26] was 0.2590 y2 × 10^4 (mole fraction). The “cross over region of the solubility isotherms” value ([1]; ScCO2, isotherms 308 to 338 K) was 16.5 MPa, the solubility thermodynamic at 60 min [1, 3] was 64.3 µg/mL (≈ 143 µM) and the solubility thermodynamic at 60 min [1, 4] was 106 µg/mL (≈ 235 µM). For the same compound, the solubility thermodynamic at 60 min [1, 5] was 116 µg/mL (≈ 256 µM), the solubility thermodynamic at 60 min [1, 6] was 126 µg/mL (≈ 281 µM) and the solubility thermodynamic at 60 min [1, 7] was 138 µg/mL (≈ 306 µM). It also gave a solubility thermodynamic at 60 min [1, 8] of 169 µg/mL (≈ 375 µM), a solubility thermodynamic at 60 min [1, 9] of 47.9 µg/mL (≈ 106 µM) and a solubility thermodynamic at 60 min [1, 10] of 90.1 µg/mL (≈ 200 µM). The solubility thermodynamic at 60 min [1, 11] was 123 µg/mL (≈ 272 µM), the solubility thermodynamic at 60 min [1, 12] was 135 µg/mL (≈ 300 µM) and the solubility thermodynamic at 60 min [1, 13] was 181 µg/mL (≈ 402 µM). It also gave a solubility thermodynamic at 60 min [1, 14] of 186 µg/mL (≈ 412 µM), a solubility thermodynamic at 60 min [1, 15] of 31.9 µg/mL (≈ 70.7 µM) and a solubility thermodynamic at 60 min [1, 16] of 70.2 µg/mL (≈ 156 µM). It also gave a solubility thermodynamic at 60 min [1, 17] of 120 µg/mL (≈ 267 µM), a solubility thermodynamic at 60 min [1, 18] of 147 µg/mL (≈ 325 µM) and a solubility thermodynamic at 60 min [1, 19] of 185 µg/mL (≈ 410 µM). It also gave a solubility thermodynamic at 60 min [1, 20] of 192 µg/mL (≈ 426 µM), a solubility thermodynamic at 60 min [1, 21] of 20.4 µg/mL (≈ 45.2 µM) and a solubility thermodynamic at 60 min [1, 22] of 53 µg/mL (≈ 118 µM). The solubility thermodynamic at 60 min [1, 23] was 134 µg/mL (≈ 297 µM), the solubility thermodynamic at 60 min [1, 24] was 165 µg/mL (≈ 366 µM) and the solubility thermodynamic at 60 min [1, 25] was 203 µg/mL (≈ 450 µM). The solubility thermodynamic at 60 min [1, 26] was 208 µg/mL (≈ 461 µM), the “Enthalpy of sublimation, ΔHsub” value ([2]; obtained with Bartle et al. model) was ~49.653^c (approximate value) kJ/mol and the “Total entalpy, ΔHtotal” value ([2]; obtained with Chrastil model) was 30.548^a kJ/mol. The “Total entalpy, ΔHtotal” value ([2]; obtained with Reformulated Chrastil model) was 22.496^b kJ/mol.
